In patent US20210338708A1, “METHOD FOR TREATMENT OF CORONAVIRUS INFECTION” (Renibus Therapeutics, Inc., priority 2020, published 2021):
Several values for one entry are separate records, joined by “and”; a condition that tells them apart may be missing. Equal values may be shown once. Read-outs that look alike come from different tables or passages of the source.

Legend:
SARS-CoV-2 [1] = format: cell-based, SARS-CoV-2 (2019-nCoV/USA-WA1/2020 strain); settings: for Plaque counts: replicates, viral replication, Vero E6, 24 h
dengue virus = settings: by inhibiting synthesis of NSP1; cited from earlier work
Vero E6 cell line = Vero E6 cell line in the presence of SARS-CoV-2; NCATS/NIH data; cited from earlier work
yellow fever virus = settings: by inhibiting synthesis of NSP1; cited from earlier work
SARS-CoV-2 [2] = test: Reduction of virus yield (Secondary VYR assay); format: cell-based, SARS-CoV-2 USA_WA1/2020; settings: Vero 76, 1 hour pretreatment of compound and virus, read-out: TEST EC90
Description: Active compounds are further tested in a confirmatory assay. This assay is set up similar to the methodology described above only eight half-log 10 concentrations of inhibitor are tested for antiviral activity and cytotoxicity. After sufficient virus replication occurs (3 days for SARS-CoV-2), a sample of supernatant is taken from each infected well (three replicate wells are pooled) and tested immediately or held frozen at −80° C. for later virus titer determination. After maximum CPE is observed, the viable plates are stained with neutral red dye. The incorporated dye content is quantified as described above to generate the EC50 and CC50 values.
Virus yielded in the presence of test compound is titrated and compared to virus titers from the untreated virus controls. Titration of the viral samples (collected as described in the paragraph above) is performed by endpoint dilution (Reed, L. J., and H. Muench. “A Simple Method of Estimating Fifty Percent Endpoints.” Am J Hyg 27 (1938): 493-98.)
Serial 1/10 dilutions of virus are made and plated into 4 replicate wells containing fresh cell monolayers of Vero 76 cells. Plates are then incubated, and cells are scored for the presence or absence of virus after a distinct CPE is observed, and the CCID50 calculated using the Reed-Muench method. […]

SARS-CoV-2 [3] = test: Reduction of virus-induced cytopathic effect (visual and neutral red) within secondary assay; format: cell-based, SARS-CoV-2 USA_WA1/2020; settings: Vero 76, 1 hour pretreatment of compound and virus
Description: Confluent or near-confluent cell culture monolayers of Vero 76 cells are prepared in 96-well disposable microplates the day before testing. Cells are maintained in minimum essential medium (MEM) supplemented with 5% FBS. For antiviral assays the same medium is used but with FBS reduced to 2% and supplemented with 50-μg/ml gentamicin. Compounds are dissolved in DMSO, saline or the diluent requested by the submitter. […] The test compound is prepared at four serial log 10 concentrations, usually 0.1, 1.0, 10, and […] or μM (per sponsor preference). Lower concentrations are used when insufficient compound is supplied. Five microwells are used per dilution: three for infected cultures and two for uninfected toxicity cultures. Controls for the experiment consist of six microwells that are infected and not treated (virus controls) and six that are untreated and uninfected (cell controls) on every plate. A known active drug is tested in parallel as a positive control drug using the same method as is applied for test compounds. […]
Growth media is removed from the cells and the test compound is applied in 0.1 ml volume to wells at 2× concentration. […] The dye content in each well is quantified using a spectrophotometer at 540 nm wavelength. […]
Active compounds are further tested in a confirmatory assay. […] The incorporated dye content is quantified as described above to generate the EC50 and CC50 values.

SARS-CoV-2 [4] = format: cell-based, SARS-CoV-2 (2019-nCoV/USA-WA1/2020 strain); settings: for Plaque counts: replicates, direct inactivation, Vero E6, 24 h
SARS-CoV-2 [5] = format: cell-based, SARS-CoV-2 (2019-nCoV/USA-WA1/2020 strain); settings: viral replication; for % reduction relative to virus control / Virus titer, Average: 11.11 μM; for Virus titer, Rep-1 to Rep-3: 100 μM
SARS-CoV-2 [6] = format: cell-based, SARS-CoV-2 (2019-nCoV/USA-WA1/2020 strain)

CCC(CC)COC(=O)[C@H](C)N[P@](=O)(OC[C@H]1O[C@@](C#N)(c2ccc3c(N)ncnn23)[C@H](O)[C@@H]1O)Oc1ccccc1 [Remdesivir, reference compound]
Plaque counts (SARS-CoV-2 [1]; 0.003 μM): 353 and 324 | Plaque counts (SARS-CoV-2 [1]; 0.008 μM): 195 | Plaque counts (SARS-CoV-2 [1]; 0.023 μM): 245 | Plaque counts (SARS-CoV-2 [1]; 0.07 μM): 233 and 192 | Plaque counts (SARS-CoV-2 [1]; 0.21 μM): 212 and 200 | Plaque counts (SARS-CoV-2 [1]; 0.62 μM): 274 and 270 | Plaque counts (SARS-CoV-2 [1]; 1.85 μM): 64 and 76 | Plaque counts (SARS-CoV-2 [1]; 5.56 μM): 0 | Plaque counts (SARS-CoV-2 [1]; 16.67 μM): 0 | Plaque counts (SARS-CoV-2 [1]; 50 μM): 0

C=CC1=C(C)c2cc3[n-]c(cc4[n-]c(cc5nc(cc1n2)C(C)=C5C=C)c(C)c4CCC(=O)O)c(CCC(=O)O)c3C.[Sn+2] [RBT-9, Stannous protoporphyrin]
inhibition of viral infection (dengue virus): inhibit viral infection | CC50 (Vero E6 cell line): > 30000 nM | inhibition of viral infection (yellow fever virus): inhibit viral infection | Plaque counts (SARS-CoV-2 [1]; 0.005 μM): 363 and 342 and 223 and 294 | Plaque counts (SARS-CoV-2 [1]; 0.015 μM): 136 and 228 and 172 and 164 | Plaque counts (SARS-CoV-2 [1]; 0.046 μM): 170 and 167 and 182 and 259 | Plaque counts (SARS-CoV-2 [1]; 0.14 μM): 293 and 228 and 264 and 211 | Plaque counts (SARS-CoV-2 [1]; 0.41 μM): 292 and 243 and 309 and 304 | Plaque counts (SARS-CoV-2 [1]; 1.23 μM): 290 and 286 and 320 and 294 | Plaque counts (SARS-CoV-2 [1]; 3.70 μM): 130 and 125 (2×) and 153 | Plaque counts (SARS-CoV-2 [1]; 11.11 μM): 143 and 134 and 129 and 145 | Plaque counts (SARS-CoV-2 [1]; 33.33 μM): 89 and 99 and 78 and 79 | Plaque counts (SARS-CoV-2 [1]; 100 μM): 15 (2×) and 12 and 7 | EC50 (SARS-CoV-2 [1]; read-out: EC50, SARS-CoV-2 replication): 45700 nM | EC90 (SARS-CoV-2 [2]): 970 nM | CC50 (Vero 76 cells): 39000 nM | CC50 (Vero 76 cells; read-out: VIS CC50, visual, Vero 76): 27000 nM | EC50 (SARS-CoV-2 [3]; neutral red, read-out: NR EC50): 1500 nM | EC50 (SARS-CoV-2 [3]; visual, read-out: VIS EC50): 1500 nM | Plaque counts (SARS-CoV-2 [4]; 0.005 μM): 203 and 304 and 260 and 236 | Plaque counts (SARS-CoV-2 [4]; 0.015 μM): 189 and 212 | Plaque counts (SARS-CoV-2 [4]; 0.046 μM): 222 and 332 and 256 and 196 | Plaque counts (SARS-CoV-2 [4]; 0.14 μM): 217 and 354 and 230 and 174 | Plaque counts (SARS-CoV-2 [4]; 0.41 μM): 259 and 194 and 205 and 235 | Plaque counts (SARS-CoV-2 [4]; 1.23 μM): 117 and 64 and 132 and 189 | Plaque counts (SARS-CoV-2 [4]; 3.70 μM): 0 (3×) and 48 | Plaque counts (SARS-CoV-2 [4]; 11.11 μM): 0 | Plaque counts (SARS-CoV-2 [4]; 33.33 μM): 0 | Plaque counts (SARS-CoV-2 [4]; 100 μM): 0 | EC50 (SARS-CoV-2 [4]; read-out: mean EC50, direct SARS-CoV-2 inactivation): 1320 nM | % reduction relative to virus control (SARS-CoV-2 [5]): 48% | Virus titer, Average (SARS-CoV-2 [5]): 2 × 10^4 pfu/ml | % reduction relative to virus control (SARS-CoV-2 [5]; listed as SnPP): about 48% | Virus titer, Average (SARS-CoV-2 [5]; listed as SnPP): 2×10^4 | Virus titer, Rep-1 to Rep-3 (SARS-CoV-2 [5]): not detected | Virus titer, Rep-1 to Rep-3 (SARS-CoV-2 [5]; listed as SnPP): could not be detected | % reduction relative to virus control (SARS-CoV-2 [6]): 46.2% | Virus titer, Average (SARS-CoV-2 [6]): 0.98×10^4 PFU/ml | % reduction relative to virus control (SARS-CoV-2 [6]; 0.411 μM, direct inactivation): No reduction | Virus titer, Average (SARS-CoV-2 [6]; 0.411 μM, direct inactivation): 1.83 × 10^4 PFU/ml | Virus titer, Rep-1 to Rep-3 (SARS-CoV-2 [6]; 0.411 μM, direct inactivation): 2.25 × 10^4 PFU/ml and 1.75 × 10^4 PFU/ml and 1.5 × 10^4 PFU/ml | % reduction relative to virus control (SARS-CoV-2 [6]; 0.411 μM, direct inactivation, listed as SnPP): no reduction | % reduction relative to virus control (SARS-CoV-2 [6]; 3.7 μM, direct inactivation): 98.6% | Virus titer, Average (SARS-CoV-2 [6]; 3.7 μM, direct inactivation): 0.25 × 10^4 PFU/ml | % reduction relative to virus control (SARS-CoV-2 [6]; 3.7 μM, direct inactivation, listed as SnPP): About 98.6% | cytopathic effect (CPE) of SnPP (Vero E6 cells): did not observe a cytopathic effect (CPE)
